This note sets out measurements from ChEMBL document CHEMBL1158087, “Gracilarioside and gracilamides from the red alga Gracilaria asiatica” (2006).

Structures are written as SMILES.

Test [1] is described as follows: Cytotoxicity against human A375S2 cells assessed as induction of cell death at 30 ug/mL by MTT assay. The format is functional, A375-S2.
Test [2] can be described thus: Cytotoxicity against human A375S2 cells assessed as induction of cell death at 20 ug/mL by MTT assay. The format is functional, A375-S2.

For the compound `CCCCCCCCCCCCCCCCCCCCCCC[C@@H](O)C(=O)N[C@@H](CO)[C@H](O)[C@H](O)C/C=C/CCCCC1CC1CCCC` (stereo partly drawn) [GRACILAMIDE A], in test [1], the Activity was 11.7%. Still for that read-out and setting: as for `CCCCCCCCCCCCCCCCCCCCCC[C@@H](O)[C@@H](O)[C@H](CO)NC(=O)[C@H](O)CCCCCCCCC1CC1CCCC` (stereo partly drawn) [GRACILAMIDE B], the figure is 11.7%. Consider `CCCCCCCCCCCCCCCCCCCCCCC[C@@H](O)C(=O)N[C@@H](CO[C@@H]1O[C@H](CO)[C@@H](O)[C@H](O)[C@H]1O)[C@H](O)[C@H](O)C/C=C/CCCCC1CC1CCCC` (stereo partly drawn) [GRACILARIOSIDE], for which, in test [2], the Activity was determined as 18.2%.
